Data taken from the supplement of paper PMC7214452.

How the values were obtained:
Experiment in all cases: normalized area under the dose-response curve (viability relative to DMSO control) (fraction); higher = less sensitive (more viable cells)
Conditions in all cases: exposure time not given
AMO1 (cancer type: MM) = tested on: AMO1 (cancer type: MM)
Protocol: (§1)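 25 myeloma and 15 non-Hodgkin lymphoma cell lines were exposed to each of 76 drugs as 7-point log dilutions (0.01 nM–10 µM) in duplicate. Viability was read with CellTiter-Glo and normalised to DMSO (0.1%) and staurosporine (10 µM) plate controls. Normalised AUC was calculated by the trapezoidal method relative to the negative control.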

[1] = tested on: JeKo-1 (cancer type: Mantle)
Protocol: as §1

[2] = tested on: NCI-H929 (cancer type: MM)
Protocol: as §1

[3] = tested on: KMS12PE (cancer type: MM)
Protocol: as §1

[4] = tested on: SR-786 (cancer type: TCL)
Protocol: as §1

[5] = tested on: OCI-LY19 (cancer type: DLBCL)
Protocol: as §1

LP1 (cancer type: MM) = tested on: LP1 (cancer type: MM)
Protocol: as §1

[6] = tested on: OCI-MY5/CRBN (cancer type: MM)
Protocol: as §1

[7] = tested on: OCI-MY7 (cancer type: MM)
Protocol: as §1

KMS34 (cancer type: MM) = tested on: KMS34 (cancer type: MM)
Protocol: as §1

[8] = tested on: JVM2 (cancer type: Mantle)
Protocol: as §1

[9] = tested on: OCI-MY5/Vec (cancer type: MM)
Protocol: as §1

JJN3 (cancer type: MM) = tested on: JJN3 (cancer type: MM)
Protocol: as §1

OPM2 (cancer type: MM) = tested on: OPM2 (cancer type: MM)
Protocol: as §1

KMS18 (cancer type: MM) = tested on: KMS18 (cancer type: MM)
Protocol: as §1

My-La (cancer type: TCL) = tested on: My-La (cancer type: TCL)
Protocol: as §1

[10] = tested on: Karpas-299 (cancer type: TCL)
Protocol: as §1

[11] = tested on: RPMI 8226 (cancer type: MM)
Protocol: as §1

MM1.R (cancer type: MM) = tested on: MM1.R (cancer type: MM)
Protocol: as §1

U266 (cancer type: MM) = tested on: U266 (cancer type: MM)
Protocol: as §1

KMS11 (cancer type: MM) = tested on: KMS11 (cancer type: MM)
Protocol: as §1

[12] = tested on: HuT 78 (cancer type: TCL)
Protocol: as §1

[13] = tested on: OCI-MY5 (cancer type: MM)
Protocol: as §1

L363 (cancer type: MM) = tested on: L363 (cancer type: MM)
Protocol: as §1

XG2 (cancer type: MM) = tested on: XG2 (cancer type: MM)
Protocol: as §1

MM1.S (cancer type: MM) = tested on: MM1.S (cancer type: MM)
Protocol: as §1

[14] = tested on: Granta-519 (cancer type: Mantle)
Protocol: as §1

[15] = tested on: KMS28BM (cancer type: MM)
Protocol: as §1

[16] = tested on: SU-DHL2 (cancer type: DLBCL)
Protocol: as §1

Se-Ax (cancer type: TCL) = tested on: Se-Ax (cancer type: TCL)
Protocol: as §1

KMS26 (cancer type: MM) = tested on: KMS26 (cancer type: MM)
Protocol: as §1

FR4 (cancer type: MM) = tested on: FR4 (cancer type: MM)
Protocol: as §1

EJM (cancer type: MM) = tested on: EJM (cancer type: MM)
Protocol: as §1

[17] = tested on: SU-DHL1 (cancer type: TCL)
Protocol: as §1

[18] = tested on: OCI-LY3 (cancer type: DLBCL)
Protocol: as §1

[19] = tested on: Mino (cancer type: Mantle)
Protocol: as §1

SKMM2 (cancer type: MM) = tested on: SKMM2 (cancer type: MM)
Protocol: as §1

[20] = tested on: KMS28PE (cancer type: MM)
Protocol: as §1

[21] = tested on: OCI-LY1 (cancer type: DLBCL)
Protocol: as §1

[22] = tested on: SU-DHL6 (cancer type: DLBCL)
Protocol: as §1

SMILES | normalized area under the dose-response curve (AMO1 (cancer type: MM)) | normalized area under the dose-response curve [1] | normalized area under the dose-response curve [2] | normalized area under the dose-response curve [3] | normalized area under the dose-response curve [4] | normalized area under the dose-response curve [5] | normalized area under the dose-response curve (LP1 (cancer type: MM)) | normalized area under the dose-response curve [6] | normalized area under the dose-response curve [7] | normalized area under the dose-response curve (KMS34 (cancer type: MM)) | normalized area under the dose-response curve [8] | normalized area under the dose-response curve [9] | normalized area under the dose-response curve (JJN3 (cancer type: MM)) | normalized area under the dose-response curve (OPM2 (cancer type: MM)) | normalized area under the dose-response curve (KMS18 (cancer type: MM)) | normalized area under the dose-response curve (My-La (cancer type: TCL)) | normalized area under the dose-response curve [10] | normalized area under the dose-response curve [11] | normalized area under the dose-response curve (MM1.R (cancer type: MM)) | normalized area under the dose-response curve (U266 (cancer type: MM)) | normalized area under the dose-response curve (KMS11 (cancer type: MM)) | normalized area under the dose-response curve [12] | normalized area under the dose-response curve [13] | normalized area under the dose-response curve (L363 (cancer type: MM)) | normalized area under the dose-response curve (XG2 (cancer type: MM)) | normalized area under the dose-response curve (MM1.S (cancer type: MM)) | normalized area under the dose-response curve [14] | normalized area under the dose-response curve [15] | normalized area under the dose-response curve [16] | normalized area under the dose-response curve (Se-Ax (cancer type: TCL)) | normalized area under the dose-response curve (KMS26 (cancer type: MM)) | normalized area under the dose-response curve (FR4 (cancer type: MM)) | normalized area under the dose-response curve (EJM (cancer type: MM)) | normalized area under the dose-response curve [17] | normalized area under the dose-response curve [18] | normalized area under the dose-response curve [19] | normalized area under the dose-response curve (SKMM2 (cancer type: MM)) | normalized area under the dose-response curve [20] | normalized area under the dose-response curve [21] | normalized area under the dose-response curve [22]
Nc1nc(Cl)nc2c1ncn2[C@H]1C[C@H](O)[C@@H](CO)O1 [Cladribine] | 0.672 | 0.185 | 0.52 | 0.84 | 0.766 | 0.919 | 0.762 | 0.961 | 0.79 | 0.734 | 0.748 | 0.89 | 0.993 | 0.984 | 0.798 | 0.813 | 0.89 | 0.939 | 0.56 | 0.918 | 0.854 | 0.825 | 0.929 | 0.826 | 0.452 | 0.49 | 0.523 | 0.768 | 0.861 | 0.627 | 0.795 | 1.01 | 0.555 | 0.167 | 0.311 | 0.27 | 0.763 | 0.533 | 0.884 | 0.843
Nc1nc(Cl)nc2c1ncn2[C@@H]1O[C@H](CO)[C@@H](O)[C@@H]1F [Clofarabine] | 0.489 | 0.138 | 0.43 | 0.66 | 0.851 | 0.472 | 0.686 | 0.927 | 0.74 | 0.536 | 0.594 | 0.807 | 0.559 | 0.871 | 0.794 | 0.685 | 0.759 | 0.727 | 0.45 | 0.595 | 0.578 | 0.727 | 0.915 | 0.667 | 0.346 | 0.36 | 0.35 | 0.617 | 0.662 | 0.451 | 0.592 | 0.973 | 0.477 | 0.236 | 0.119 | 0.274 | 0.728 | 0.422 | 0.5 | 0.573
O=C(c1ccc(F)c(F)c1Nc1ccc(I)cc1F)N1CC(O)([C@@H]2CCCCN2)C1 [Cobimetinib] | 0.392 | 0.878 | 0.6 | 0.75 | 0.808 | 0.923 | 0.634 | 0.822 | 0.68 | 0.494 | 0.724 | 0.843 | 0.742 | 0.629 | 0.588 | 0.857 | 0.842 | 0.736 | 0.65 | 0.767 | 0.722 | 0.807 | 0.587 | 0.556 | 0.501 | 0.69 | 0.888 | 0.731 | 0.873 | 0.538 | 0.766 | 0.696 | 0.54 | 0.383 | 0.9 | 0.887 | 0.813 | 0.608 | 0.996 | 0.83
CC1(COc2ccc3c(c2)ncn3-c2ccc3cccc(N4CCC(N)CC4)c3n2)COC1 [Crenolanib] | 0.325 | 0.746 | 0.45 | 0.53 | 0.879 | 0.861 | 0.409 | 0.549 | 0.53 | 0.423 | 0.672 | 0.541 | 0.481 | 0.452 | 0.45 | 0.779 | 0.855 | 0.464 | 0.53 | 0.426 | 0.488 | 0.569 | 0.269 | 0.459 | 0.339 | 0.52 | 0.91 | 0.46 | 0.949 | 0.594 | 0.616 | 0.59 | 0.436 | 0.49 | 0.773 | 0.818 | 0.663 | 0.407 | 0.704 | 0.894
C[C@@H](Oc1cc(-c2cnn(C3CCNCC3)c2)cnc1N)c1c(Cl)ccc(F)c1Cl [Crizotinib] | 0.362 | 0.677 | 0.39 | 0.54 | 0.406 | 0.733 | 0.465 | 0.75 | 0.73 | 0.306 | 0.654 | 0.703 | 0.405 | 0.457 | 0.456 | 0.744 | 0.437 | 0.34 | 0.44 | 0.335 | 0.423 | 0.359 | 0.381 | 0.447 | 0.338 | 0.4 | 0.769 | 0.358 | 0.833 | 0.368 | 0.577 | 0.509 | 0.471 | 0.0611 | 0.765 | 0.731 | 0.487 | 0.323 | 0.817 | 0.831
O=P1(N(CCCl)CCCl)NCCCO1 (stereo not given) [Cyclophosphamide] | 0.884 | 0.915 | 0.93 | 0.91 | 0.911 | 0.983 | 0.977 | 0.972 | 0.92 | 0.791 | 0.943 | 0.86 | 0.95 | 0.912 | 0.944 | 0.962 | 0.931 | 0.887 | 0.88 | 0.862 | 0.822 | 0.928 | 0.913 | 0.831 | 0.878 | 0.9 | 1 | 0.923 | 0.929 | 0.865 | 0.956 | 0.918 | 0.93 | 0.937 | 0.885 | 0.907 | 0.949 | 0.863 | 0.958 | 0.969
